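How tested: cells in 96-well plates exposed to compound for 48 hours at five concentrations. GI50: concentration for 50% inhibition of growth. TGI: concentration producing complete growth inhibition.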
Columns and labels:
Experiment in all cases: NCI-60 cell line screen, 48 h
M14 melanoma = tested on: M14 melanoma
OVCAR-4 ovarian = tested on: OVCAR-4 ovarian
UACC-62 melanoma = tested on: UACC-62 melanoma
NCI-H460 lung = tested on: NCI-H460 lung
MCF7 breast = tested on: MCF7 breast
HCT-15 colon = tested on: HCT-15 colon
RPMI-8226 leukemia = tested on: RPMI-8226 leukemia
MDA-MB-435 = tested on: MDA-MB-435
KM12 colon = tested on: KM12 colon
NCI-H226 lung = tested on: NCI-H226 lung
A498 renal = tested on: A498 renal
TK-10 renal = tested on: TK-10 renal
HCT-116 colon = tested on: HCT-116 colon
OVCAR-8 ovarian = tested on: OVCAR-8 ovarian
OVCAR-3 ovarian = tested on: OVCAR-3 ovarian
LOX IMVI melanoma = tested on: LOX IMVI melanoma
BT-549 breast = tested on: BT-549 breast
DU-145 prostate = tested on: DU-145 prostate
A549 NSCLC = tested on: A549 NSCLC
COLO 205 colon = tested on: COLO 205 colon
SN12C renal = tested on: SN12C renal
MALME-3M melanoma = tested on: MALME-3M melanoma
HS 578T breast = tested on: HS 578T breast
SR leukemia = tested on: SR leukemia
HCC-2998 colon = tested on: HCC-2998 colon
SK-OV-3 ovarian = tested on: SK-OV-3 ovarian
HT29 colon = tested on: HT29 colon
CAKI-1 renal = tested on: CAKI-1 renal
SNB-75 CNS = tested on: SNB-75 CNS
OVCAR-5 ovarian = tested on: OVCAR-5 ovarian
PC-3 prostate = tested on: PC-3 prostate
NCI-H522 lung = tested on: NCI-H522 lung
SW-620 colon = tested on: SW-620 colon
IGROV1 ovarian = tested on: IGROV1 ovarian
UO-31 renal = tested on: UO-31 renal
ACHN renal = tested on: ACHN renal
SF-295 CNS = tested on: SF-295 CNS
K-562 leukemia = tested on: K-562 leukemia
NCI-H23 lung = tested on: NCI-H23 lung
SK-MEL-5 melanoma = tested on: SK-MEL-5 melanoma
EKVX NSCLC = tested on: EKVX NSCLC
SF-268 CNS = tested on: SF-268 CNS
SF-539 CNS = tested on: SF-539 CNS
786-0 renal = tested on: 786-0 renal
RXF 393 renal = tested on: RXF 393 renal
HOP-92 NSCLC = tested on: HOP-92 NSCLC
HOP-62 NSCLC = tested on: HOP-62 NSCLC
CCRF-CEM leukemia = tested on: CCRF-CEM leukemia
UACC-257 melanoma = tested on: UACC-257 melanoma
U251 CNS = tested on: U251 CNS
HL-60(TB) leukemia = tested on: HL-60(TB) leukemia
SK-MEL-2 melanoma = tested on: SK-MEL-2 melanoma
NCI/ADR-RES ovarian = tested on: NCI/ADR-RES ovarian
SNB-19 CNS = tested on: SNB-19 CNS
T-47D breast = tested on: T-47D breast
MOLT-4 leukemia = tested on: MOLT-4 leukemia
SK-MEL-28 melanoma = tested on: SK-MEL-28 melanoma
MDA-MB-231 breast = tested on: MDA-MB-231 breast

Question: For CN1CCN(Cc2ccc(NC(=O)c3cncc(C#Cc4cnc5ccc(O[C@@H]6CCOC6)nn45)c3)cc2C(F)(F)F)CC1, which GI50 (M14 melanoma) is on record?
Answer: 66.2 nM

Question: What about the TGI (M14 melanoma) of the same compound?
Answer: 181 nM

Question: What about the GI50 (OVCAR-4 ovarian) of the same compound?
Answer: 155 nM

Question: And the TGI (OVCAR-4 ovarian)?
Answer: 940 nM

Question: And the GI50 (UACC-62 melanoma)?
Answer: 165 nM

Question: And the TGI (UACC-62 melanoma)?
Answer: 809 nM

Question: What about the GI50 (NCI-H460 lung) of the same compound?
Answer: 182 nM

Question: And the TGI (NCI-H460 lung)?
Answer: 703 nM

Question: And the GI50 (MCF7 breast)?
Answer: 80.4 nM

Question: What about the TGI (MCF7 breast) of the same compound?
Answer: 580 nM

Question: What about the GI50 (HCT-15 colon) of the same compound?
Answer: 161 nM

Question: What about the TGI (HCT-15 colon) of the same compound?
Answer: 639 nM

Question: What about the GI50 (RPMI-8226 leukemia) of the same compound?
Answer: 265 nM

Question: What about the TGI (RPMI-8226 leukemia) of the same compound?
Answer: 1260 nM

Question: And the GI50 (MDA-MB-435)?
Answer: 125 nM

Question: What about the TGI (MDA-MB-435) of the same compound?
Answer: 653 nM

Question: And the GI50 (KM12 colon)?
Answer: 5 nM

Question: And the TGI (KM12 colon)?
Answer: 539 nM

Question: What about the GI50 (NCI-H226 lung) of the same compound?
Answer: 47.8 nM

Question: And the TGI (NCI-H226 lung)?
Answer: 911 nM

Question: What about the GI50 (A498 renal) of the same compound?
Answer: 606 nM

Question: And the TGI (A498 renal)?
Answer: 1250 nM

Question: What about the GI50 (TK-10 renal) of the same compound?
Answer: 177 nM

Question: What about the TGI (TK-10 renal) of the same compound?
Answer: 632 nM

Question: What about the GI50 (HCT-116 colon) of the same compound?
Answer: 64.9 nM

Question: And the TGI (HCT-116 colon)?
Answer: 454 nM

Question: And the GI50 (OVCAR-8 ovarian)?
Answer: 160 nM

Question: And the TGI (OVCAR-8 ovarian)?
Answer: 634 nM

Question: What about the GI50 (OVCAR-3 ovarian) of the same compound?
Answer: 194 nM

Question: What about the TGI (OVCAR-3 ovarian) of the same compound?
Answer: 768 nM

Question: What about the GI50 (LOX IMVI melanoma) of the same compound?
Answer: 139 nM

Question: What about the TGI (LOX IMVI melanoma) of the same compound?
Answer: 635 nM

Question: What about the GI50 (BT-549 breast) of the same compound?
Answer: 646 nM

Question: And the TGI (BT-549 breast)?
Answer: 1290 nM

Question: And the GI50 (DU-145 prostate)?
Answer: 187 nM

Question: What about the TGI (DU-145 prostate) of the same compound?
Answer: 642 nM

Question: What about the GI50 (A549 NSCLC) of the same compound?
Answer: 195 nM

Question: And the TGI (A549 NSCLC)?
Answer: 693 nM

Question: What about the GI50 (COLO 205 colon) of the same compound?
Answer: 109 nM

Question: And the TGI (COLO 205 colon)?
Answer: 220 nM

Question: What about the GI50 (SN12C renal) of the same compound?
Answer: 120 nM

Question: What about the TGI (SN12C renal) of the same compound?
Answer: 636 nM

Question: And the GI50 (MALME-3M melanoma)?
Answer: 61.3 nM

Question: What about the TGI (MALME-3M melanoma) of the same compound?
Answer: 294 nM

Question: What about the GI50 (HS 578T breast) of the same compound?
Answer: 127 nM

Question: And the TGI (HS 578T breast)?
Answer: 565 nM

Question: And the GI50 (SR leukemia)?
Answer: 82.3 nM

Question: What about the TGI (SR leukemia) of the same compound?
Answer: 490 nM

Question: What about the GI50 (HCC-2998 colon) of the same compound?
Answer: 260 nM

Question: And the TGI (HCC-2998 colon)?
Answer: 886 nM

Question: What about the GI50 (SK-OV-3 ovarian) of the same compound?
Answer: 449 nM

Question: And the TGI (SK-OV-3 ovarian)?
Answer: 1120 nM

Question: And the GI50 (HT29 colon)?
Answer: 111 nM

Question: And the TGI (HT29 colon)?
Answer: 602 nM

Question: What about the GI50 (CAKI-1 renal) of the same compound?
Answer: 122 nM

Question: And the TGI (CAKI-1 renal)?
Answer: 596 nM

Question: What about the GI50 (SNB-75 CNS) of the same compound?
Answer: 124 nM

Question: What about the TGI (SNB-75 CNS) of the same compound?
Answer: 510 nM

Question: What about the GI50 (OVCAR-5 ovarian) of the same compound?
Answer: 223 nM

Question: What about the TGI (OVCAR-5 ovarian) of the same compound?
Answer: 883 nM

Question: What about the GI50 (PC-3 prostate) of the same compound?
Answer: 277 nM

Question: What about the TGI (PC-3 prostate) of the same compound?
Answer: 1210 nM

Question: What about the GI50 (NCI-H522 lung) of the same compound?
Answer: 107 nM

Question: And the TGI (NCI-H522 lung)?
Answer: 277 nM

Question: What about the GI50 (SW-620 colon) of the same compound?
Answer: 153 nM

Question: What about the TGI (SW-620 colon) of the same compound?
Answer: 623 nM

Question: And the GI50 (IGROV1 ovarian)?
Answer: 89.4 nM

Question: What about the TGI (IGROV1 ovarian) of the same compound?
Answer: 587 nM

Question: And the GI50 (UO-31 renal)?
Answer: 173 nM

Question: What about the TGI (UO-31 renal) of the same compound?
Answer: 682 nM

Question: And the GI50 (ACHN renal)?
Answer: 171 nM

Question: And the TGI (ACHN renal)?
Answer: 670 nM

Question: What about the GI50 (SF-295 CNS) of the same compound?
Answer: 454 nM

Question: What about the TGI (SF-295 CNS) of the same compound?
Answer: 1180 nM

Question: What about the GI50 (K-562 leukemia) of the same compound?
Answer: 5 nM

Question: What about the TGI (K-562 leukemia) of the same compound?
Answer: 1790 nM

Question: And the GI50 (NCI-H23 lung)?
Answer: 178 nM

Question: What about the TGI (NCI-H23 lung) of the same compound?
Answer: 729 nM

Question: And the GI50 (SK-MEL-5 melanoma)?
Answer: 586 nM

Question: What about the TGI (SK-MEL-5 melanoma) of the same compound?
Answer: 1220 nM

Question: What about the GI50 (EKVX NSCLC) of the same compound?
Answer: 288 nM

Question: What about the TGI (EKVX NSCLC) of the same compound?
Answer: 942 nM

Question: And the GI50 (SF-268 CNS)?
Answer: 158 nM

Question: And the TGI (SF-268 CNS)?
Answer: 562 nM

Question: And the GI50 (SF-539 CNS)?
Answer: 99.8 nM

Question: And the TGI (SF-539 CNS)?
Answer: 715 nM

Question: What about the GI50 (786-0 renal) of the same compound?
Answer: 265 nM

Question: And the TGI (786-0 renal)?
Answer: 833 nM

Question: What about the GI50 (RXF 393 renal) of the same compound?
Answer: 143 nM

Question: What about the TGI (RXF 393 renal) of the same compound?
Answer: 405 nM

Question: What about the GI50 (HOP-92 NSCLC) of the same compound?
Answer: 27.3 nM

Question: What about the TGI (HOP-92 NSCLC) of the same compound?
Answer: 117 nM

Question: What about the GI50 (HOP-62 NSCLC) of the same compound?
Answer: 176 nM

Question: What about the TGI (HOP-62 NSCLC) of the same compound?
Answer: 641 nM

Question: And the GI50 (CCRF-CEM leukemia)?
Answer: 75.1 nM

Question: And the TGI (CCRF-CEM leukemia)?
Answer: 3050 nM

Question: What about the GI50 (UACC-257 melanoma) of the same compound?
Answer: 531 nM

Question: And the TGI (UACC-257 melanoma)?
Answer: 1240 nM

Question: And the GI50 (U251 CNS)?
Answer: 270 nM

Question: And the TGI (U251 CNS)?
Answer: 933 nM

Question: What about the GI50 (HL-60(TB) leukemia) of the same compound?
Answer: 75.2 nM

Question: What about the TGI (HL-60(TB) leukemia) of the same compound?
Answer: 364 nM

Question: What about the GI50 (SK-MEL-2 melanoma) of the same compound?
Answer: 114 nM

Question: What about the TGI (SK-MEL-2 melanoma) of the same compound?
Answer: 321 nM

Question: And the GI50 (NCI/ADR-RES ovarian)?
Answer: 676 nM

Question: What about the TGI (NCI/ADR-RES ovarian) of the same compound?
Answer: 1910 nM

Question: And the GI50 (SNB-19 CNS)?
Answer: 301 nM

Question: What about the TGI (SNB-19 CNS) of the same compound?
Answer: 1220 nM

Question: And the GI50 (T-47D breast)?
Answer: 556 nM

Question: And the TGI (T-47D breast)?
Answer: 1310 nM

Question: What about the GI50 (MOLT-4 leukemia) of the same compound?
Answer: 81.8 nM

Question: And the TGI (MOLT-4 leukemia)?
Answer: 1320 nM

Question: What about the GI50 (SK-MEL-28 melanoma) of the same compound?
Answer: 186 nM

Question: What about the TGI (SK-MEL-28 melanoma) of the same compound?
Answer: 813 nM

Question: And the GI50 (MDA-MB-231 breast)?
Answer: 82.5 nM

Question: And the TGI (MDA-MB-231 breast)?
Answer: 475 nM

Reference: PubChem BioAssay (NCI)
